Results reported in BindingDB's records for doi:10.7270/Q28K77GS (University of Pittsburgh, 2007).

Target: T1, Dual specificity protein phosphatase 1 (Homo sapiens, UniProt P28562)
T1 sequence (P28562 whole entry): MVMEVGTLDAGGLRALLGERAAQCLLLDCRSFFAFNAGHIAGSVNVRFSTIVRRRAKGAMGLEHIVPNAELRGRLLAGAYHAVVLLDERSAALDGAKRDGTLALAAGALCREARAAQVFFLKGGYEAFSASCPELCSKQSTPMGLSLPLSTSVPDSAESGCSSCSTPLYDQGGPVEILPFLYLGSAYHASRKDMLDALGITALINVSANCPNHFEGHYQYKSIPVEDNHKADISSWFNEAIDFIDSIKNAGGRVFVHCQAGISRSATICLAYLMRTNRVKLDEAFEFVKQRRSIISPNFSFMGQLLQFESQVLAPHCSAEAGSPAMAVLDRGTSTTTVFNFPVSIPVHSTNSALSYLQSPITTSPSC
Test: MKP-1 phosphatase inhibitors, dose response, biochemical, probe assessment (AID 674)

SMILES | IC50
CCn1nc(-c2cccs2)nc2c(=O)n(C)c(=O)nc1-2 [1-ethyl-6-methyl-3-thiophen-2-yl-pyrimido[5,4-e][1,2,4]triazine-5,7-dione] | 0.333 µM
O=C1C=Cc2ccccc2/C1=C/NC12CN3CCN(CN(C3)C1)C2 [MLS000071484] | > 50 µM
CCOc1ccc2noc3c2c1C(=O)c1ccccc1-3 [MLS000106837] | > 50 µM
Nc1cccc2cnccc12 [isoquinolin-5-amine] | > 50 µM
O=C1C=Cc2ccccc2C1=O [1,2-dihydronaphthalene-1,2-dione] | > 50 µM
CC(=O)Nc1cc(OC(C)=O)c2nonc2c1OC(C)=O [Acetic acid 7-acetoxy-5-acetylamino-benzo[1,2,5]oxadiazol-4-yl ester] | > 50 µM
[O-]/[N+](=C\c1ccc(OC(F)F)cc1)c1ccccc1 [1-[4-(difluoromethoxy)phenyl]-N-phenylmethanimine oxide] | > 50 µM
Oc1nc(Nc2ccccc2)cc2ccccc12 [MLS000043701] | 10.7 µM
O=C(NC1(O)C(=O)c2ccccc2C1=O)c1ccccc1 [N-(2-hydroxy-1,3-dioxo-2-indenyl)benzamide] | > 50 µM
Cn1ncnc2c(=O)n(C)c(=O)nc1-2 | 0.423 µM
Cc1c(N=c2c(=O)c3ccccc3c2=O)c(=O)n(-c2ccccc2)n1C [MLS000105950] | 43.8 µM
Cc1ccc2c(c1)C1C=CCC1C(C(=O)O)N2 (stereo not drawn) [MLS-0067149.0001] | > 50 µM
Cc1ccc2c(c1C)NC(C(=O)O)C1CC=CC21 (stereo not drawn) | 42.5 µM
CCOC(=O)C(C(=O)OCC)c1cc(Br)c2noc3c2c1C(=O)c1ccccc1-3 [MLS000038842] | > 50 µM
COc1ccc(Br)cc1C=c1sc2nc(-c3ccco3)nn2c1=O [5-[(5-bromanyl-2-methoxy-phenyl)methylidene]-2-(furan-2-yl)-[1,3]thiazolo[3,2-b][1,2,4]triazol-6-one] | 7.02 µM
c1ccc(CSc2nnc(-c3ccco3)c(-c3ccco3)n2)cc1 [MLS-0029114.0001] | > 50 µM
O=C(O)C1Nc2c(O)cccc2C2C=CCC12 (stereo not drawn) | > 50 µM
O=C(Nc1ccc2nc(-c3ccco3)c(-c3ccco3)nc2c1)N1CCCCCC1 | > 50 µM
Cc1ccccc1Nc1cc2ccccc2c(O)n1 [3-[(2-methylphenyl)amino]-2H-isoquinolin-1-one] | 8.75 µM
COc1cccc2c(C)c(C(=O)O)[nH]c12 | > 50 µM
O=C1Cc2ccccc2C(=O)N1CCc1ccccc1 [2-(2-phenylethyl)-4H-isoquinoline-1,3-dione] | > 50 µM
[O-]/[N+](=C\c1ccncc1)c1ccccc1 | > 50 µM
N#Cc1c(N)sc(=S)c2c1CCN(Cc1ccccc1)C2 [3-Amino-7-benzyl-1-thioxo-5,6,7,8-tetrahydro-1H-thiopyrano[3,4-c]pyridine-4-carbonitrile] | 2.38 µM
COc1ccc2noc3c2c1C(=O)c1ccccc1-3 [MLS000106874] | > 50 µM
N#Cc1c(N2CCCC2)nc(N)c2c(N)nc(N3CCCC3)cc12 [SMR000061605] | 14.6 µM
COc1cccc2c1NC(C(=O)O)C1CC=CC21 (stereo not drawn) [SMR000009698] | > 50 µM
O=C(OC1CCCCC1)c1ccc2c(c1)C1C=CCC1C(C(=O)O)N2 (stereo not drawn) [SMR000019385] | 4.61 µM
CCn1nc(-c2ccccc2)nc2c(=O)n(C)c(=O)nc1-2 [1-Ethyl-6-methyl-3-phenyl-1H-pyrimido[5,4-e][1,2,4]triazine-5,7-dione] | 0.485 µM
